What was measured:
Format in all cases: biochemical
CAMK2δ = CAMK2δ (Homo sapiens, UniProt Q13557); test: Kinome profiling CAMK2δ; conditions: read-out: Inhibitory activity CAMK2δ; for inhibition at 0.1 µM: 100 nM
Description: (§1) . The kinome-wide selectivity was determined following the methods previously reported by Mohedas et al., ACS Chem Biol 2013, 8, 1291-1302 and Sanvitale et al., PLoS One 2013, 8, e62721.

CDK4/cyclinD = CDK4/cyclinD (Homo sapiens, UniProt P11802); test: Kinome profiling CDK4/cyclinD; conditions: read-out: Inhibitory activity CDK4/cyclinD; for inhibition at 0.1 µM: 100 nM
Description: as §1

KDR = KDR (Homo sapiens, UniProt P35968); test: Kinome profiling KDR; conditions: read-out: Inhibitory activity KDR; for inhibition at 0.1 µM: 100 nM
Description: as §1

SGK3 = target: T1, SGK3 (Homo sapiens, UniProt Q96BR1); test: Kinome profiling SGK3; conditions: read-out: Inhibitory activity SGK3; for inhibition at 0.1 µM: 100 nM
T1 sequence (Q96BR1 1-496): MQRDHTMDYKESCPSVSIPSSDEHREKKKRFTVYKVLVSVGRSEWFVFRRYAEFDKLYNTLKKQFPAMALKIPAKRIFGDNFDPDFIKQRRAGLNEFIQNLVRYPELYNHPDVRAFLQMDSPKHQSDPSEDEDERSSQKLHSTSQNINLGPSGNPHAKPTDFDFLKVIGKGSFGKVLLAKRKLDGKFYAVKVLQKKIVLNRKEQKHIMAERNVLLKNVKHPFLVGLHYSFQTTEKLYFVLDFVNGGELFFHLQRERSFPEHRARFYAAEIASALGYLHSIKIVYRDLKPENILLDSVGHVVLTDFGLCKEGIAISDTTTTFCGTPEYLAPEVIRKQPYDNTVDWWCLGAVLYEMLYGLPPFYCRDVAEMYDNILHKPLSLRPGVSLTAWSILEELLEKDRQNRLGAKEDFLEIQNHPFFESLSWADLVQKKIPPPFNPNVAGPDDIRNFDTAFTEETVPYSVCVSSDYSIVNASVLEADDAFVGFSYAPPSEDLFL
Description: as §1

AKT2 = AKT2 (Homo sapiens, UniProt P31751); test: Kinome profiling AKT2; conditions: read-out: Inhibitory activity AKT2; for inhibition at 0.1 µM: 100 nM
Description: as §1

MSSK1 = MSSK1 (Homo sapiens, UniProt Q9UPE1); test: Kinome profiling MSSK1; conditions: read-out: Inhibitory activity MSSK1; for inhibition at 0.1 µM: 100 nM
Description: as §1

RSK1 = RSK1 (Homo sapiens, UniProt Q15418); test: Kinome profiling RSK1; conditions: read-out: Inhibitory activity RSK1; for inhibition at 0.1 µM: 100 nM
Description: as §1

SPHK2 = target: T2, SPHK2 (Homo sapiens, UniProt Q9NRA0); test: Kinome profiling SPHK2; conditions: read-out: Inhibitory activity SPHK2; for inhibition at 0.1 µM: 100 nM
T2 sequence (Q9NRA0 1-654): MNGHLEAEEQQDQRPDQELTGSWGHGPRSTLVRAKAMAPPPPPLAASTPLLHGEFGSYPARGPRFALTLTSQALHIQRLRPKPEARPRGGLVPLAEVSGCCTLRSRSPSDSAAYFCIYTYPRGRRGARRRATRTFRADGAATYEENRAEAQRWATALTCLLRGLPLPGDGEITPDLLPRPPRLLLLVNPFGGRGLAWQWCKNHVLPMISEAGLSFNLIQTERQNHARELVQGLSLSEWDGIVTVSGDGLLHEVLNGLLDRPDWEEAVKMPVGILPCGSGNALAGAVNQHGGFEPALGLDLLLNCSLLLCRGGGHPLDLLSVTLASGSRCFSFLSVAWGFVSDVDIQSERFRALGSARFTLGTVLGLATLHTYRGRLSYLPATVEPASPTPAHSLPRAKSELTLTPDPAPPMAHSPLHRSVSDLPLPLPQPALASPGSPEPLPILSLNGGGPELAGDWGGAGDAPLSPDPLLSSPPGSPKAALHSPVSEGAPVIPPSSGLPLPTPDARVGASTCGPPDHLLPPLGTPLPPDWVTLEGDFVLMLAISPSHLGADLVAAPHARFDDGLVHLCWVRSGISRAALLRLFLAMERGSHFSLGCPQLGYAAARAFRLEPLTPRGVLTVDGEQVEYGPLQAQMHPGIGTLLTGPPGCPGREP
Description: as §1

TIE2 = TIE2 (Homo sapiens, UniProt Q02763); test: Kinome profiling TIE2; conditions: read-out: Inhibitory activity TIE2; for inhibition at 0.1 µM: 100 nM
Description: as §1

MST2 = target: T3, MST2 (Homo sapiens, UniProt Q13188); test: Kinome profiling MST2; conditions: read-out: Inhibitory activity MST2; for inhibition at 0.1 µM: 100 nM
T3 sequence (Q13188 1-491): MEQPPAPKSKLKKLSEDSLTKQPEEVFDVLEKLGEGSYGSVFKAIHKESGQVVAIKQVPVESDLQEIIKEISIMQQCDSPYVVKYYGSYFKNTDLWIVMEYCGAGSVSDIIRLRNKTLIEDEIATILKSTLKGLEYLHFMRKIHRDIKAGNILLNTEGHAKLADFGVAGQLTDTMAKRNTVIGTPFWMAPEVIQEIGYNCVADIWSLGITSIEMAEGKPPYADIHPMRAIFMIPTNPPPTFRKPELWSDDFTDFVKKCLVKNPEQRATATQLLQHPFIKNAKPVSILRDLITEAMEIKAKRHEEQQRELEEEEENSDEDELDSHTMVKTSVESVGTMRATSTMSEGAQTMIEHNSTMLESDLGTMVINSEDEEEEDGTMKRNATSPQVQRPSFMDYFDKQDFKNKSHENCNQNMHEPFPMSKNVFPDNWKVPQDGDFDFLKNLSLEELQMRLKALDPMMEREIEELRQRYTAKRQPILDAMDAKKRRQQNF
Description: as §1

Chain of TIE2 (Q02763 23-1124): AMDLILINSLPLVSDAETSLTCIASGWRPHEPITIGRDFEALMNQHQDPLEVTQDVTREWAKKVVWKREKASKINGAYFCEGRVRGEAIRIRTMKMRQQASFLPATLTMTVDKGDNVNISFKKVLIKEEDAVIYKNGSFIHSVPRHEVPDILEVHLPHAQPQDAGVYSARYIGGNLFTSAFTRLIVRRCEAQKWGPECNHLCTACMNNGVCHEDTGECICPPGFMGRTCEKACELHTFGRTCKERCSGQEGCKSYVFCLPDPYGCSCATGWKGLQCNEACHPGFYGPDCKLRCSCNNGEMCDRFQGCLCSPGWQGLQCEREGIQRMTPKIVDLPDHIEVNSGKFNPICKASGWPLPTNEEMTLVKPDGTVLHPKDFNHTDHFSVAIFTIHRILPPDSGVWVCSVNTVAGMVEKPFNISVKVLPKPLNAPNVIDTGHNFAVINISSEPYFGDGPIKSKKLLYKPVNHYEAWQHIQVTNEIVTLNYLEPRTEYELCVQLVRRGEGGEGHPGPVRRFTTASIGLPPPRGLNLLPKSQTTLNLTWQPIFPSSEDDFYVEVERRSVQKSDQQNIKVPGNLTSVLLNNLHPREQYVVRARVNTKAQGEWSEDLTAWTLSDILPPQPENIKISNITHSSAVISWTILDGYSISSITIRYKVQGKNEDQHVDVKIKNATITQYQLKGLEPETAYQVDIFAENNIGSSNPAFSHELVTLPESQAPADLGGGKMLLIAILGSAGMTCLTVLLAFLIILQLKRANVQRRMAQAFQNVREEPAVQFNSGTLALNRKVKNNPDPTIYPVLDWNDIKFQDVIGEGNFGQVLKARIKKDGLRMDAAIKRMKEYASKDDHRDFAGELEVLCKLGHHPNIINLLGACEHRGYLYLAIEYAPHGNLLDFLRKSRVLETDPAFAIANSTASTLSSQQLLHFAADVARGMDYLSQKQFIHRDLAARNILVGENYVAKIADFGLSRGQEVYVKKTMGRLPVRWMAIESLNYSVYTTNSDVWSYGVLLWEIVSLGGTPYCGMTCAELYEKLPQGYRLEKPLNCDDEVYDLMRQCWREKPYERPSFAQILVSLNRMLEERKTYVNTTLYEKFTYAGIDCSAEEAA
Chain of RSK1 (Q15418 whole entry): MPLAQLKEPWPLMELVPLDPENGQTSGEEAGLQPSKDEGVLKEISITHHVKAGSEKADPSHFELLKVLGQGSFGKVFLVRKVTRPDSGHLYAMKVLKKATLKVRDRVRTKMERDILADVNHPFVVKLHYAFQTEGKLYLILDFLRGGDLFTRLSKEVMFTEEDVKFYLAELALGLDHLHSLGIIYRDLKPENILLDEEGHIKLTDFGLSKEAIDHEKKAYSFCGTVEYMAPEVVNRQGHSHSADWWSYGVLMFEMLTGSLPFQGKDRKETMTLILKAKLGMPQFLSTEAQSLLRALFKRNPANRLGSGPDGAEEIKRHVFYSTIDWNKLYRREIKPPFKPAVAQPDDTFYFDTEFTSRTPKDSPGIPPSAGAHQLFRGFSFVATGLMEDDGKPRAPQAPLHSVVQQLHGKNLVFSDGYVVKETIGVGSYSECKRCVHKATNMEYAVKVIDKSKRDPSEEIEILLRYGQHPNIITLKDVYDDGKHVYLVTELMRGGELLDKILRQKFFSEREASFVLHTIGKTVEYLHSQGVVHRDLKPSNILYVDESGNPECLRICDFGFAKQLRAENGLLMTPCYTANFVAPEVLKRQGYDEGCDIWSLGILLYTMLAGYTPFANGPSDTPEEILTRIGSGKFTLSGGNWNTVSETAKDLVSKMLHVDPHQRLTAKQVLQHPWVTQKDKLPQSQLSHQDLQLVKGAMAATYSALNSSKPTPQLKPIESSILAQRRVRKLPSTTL
Chain of CAMK2δ (Q13557 whole entry): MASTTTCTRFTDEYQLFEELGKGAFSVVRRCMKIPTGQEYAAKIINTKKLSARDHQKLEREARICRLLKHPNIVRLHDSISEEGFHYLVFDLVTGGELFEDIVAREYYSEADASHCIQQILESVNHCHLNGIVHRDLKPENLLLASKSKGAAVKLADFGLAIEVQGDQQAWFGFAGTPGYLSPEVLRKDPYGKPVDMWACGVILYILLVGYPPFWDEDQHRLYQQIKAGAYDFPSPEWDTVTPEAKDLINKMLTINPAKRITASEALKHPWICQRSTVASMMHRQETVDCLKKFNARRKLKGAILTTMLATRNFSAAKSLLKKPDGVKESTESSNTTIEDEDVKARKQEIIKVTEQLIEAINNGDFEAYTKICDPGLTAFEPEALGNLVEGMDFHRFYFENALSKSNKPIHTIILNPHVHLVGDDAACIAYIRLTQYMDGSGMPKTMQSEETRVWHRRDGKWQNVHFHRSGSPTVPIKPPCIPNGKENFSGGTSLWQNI
Chain of AKT2 (P31751 whole entry): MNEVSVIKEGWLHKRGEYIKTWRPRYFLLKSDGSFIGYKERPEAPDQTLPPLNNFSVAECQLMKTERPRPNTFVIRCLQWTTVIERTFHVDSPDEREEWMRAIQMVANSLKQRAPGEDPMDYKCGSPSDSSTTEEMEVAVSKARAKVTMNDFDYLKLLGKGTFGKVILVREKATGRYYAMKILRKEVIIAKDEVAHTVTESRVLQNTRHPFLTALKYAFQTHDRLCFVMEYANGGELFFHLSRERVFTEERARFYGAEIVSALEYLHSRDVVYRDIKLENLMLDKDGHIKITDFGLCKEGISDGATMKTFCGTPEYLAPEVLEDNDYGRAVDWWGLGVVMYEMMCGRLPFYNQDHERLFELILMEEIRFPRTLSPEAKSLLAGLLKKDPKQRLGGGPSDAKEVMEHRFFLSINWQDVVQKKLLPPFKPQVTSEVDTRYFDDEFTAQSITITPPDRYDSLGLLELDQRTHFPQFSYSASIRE
Chain of KDR (P35968 20-1356): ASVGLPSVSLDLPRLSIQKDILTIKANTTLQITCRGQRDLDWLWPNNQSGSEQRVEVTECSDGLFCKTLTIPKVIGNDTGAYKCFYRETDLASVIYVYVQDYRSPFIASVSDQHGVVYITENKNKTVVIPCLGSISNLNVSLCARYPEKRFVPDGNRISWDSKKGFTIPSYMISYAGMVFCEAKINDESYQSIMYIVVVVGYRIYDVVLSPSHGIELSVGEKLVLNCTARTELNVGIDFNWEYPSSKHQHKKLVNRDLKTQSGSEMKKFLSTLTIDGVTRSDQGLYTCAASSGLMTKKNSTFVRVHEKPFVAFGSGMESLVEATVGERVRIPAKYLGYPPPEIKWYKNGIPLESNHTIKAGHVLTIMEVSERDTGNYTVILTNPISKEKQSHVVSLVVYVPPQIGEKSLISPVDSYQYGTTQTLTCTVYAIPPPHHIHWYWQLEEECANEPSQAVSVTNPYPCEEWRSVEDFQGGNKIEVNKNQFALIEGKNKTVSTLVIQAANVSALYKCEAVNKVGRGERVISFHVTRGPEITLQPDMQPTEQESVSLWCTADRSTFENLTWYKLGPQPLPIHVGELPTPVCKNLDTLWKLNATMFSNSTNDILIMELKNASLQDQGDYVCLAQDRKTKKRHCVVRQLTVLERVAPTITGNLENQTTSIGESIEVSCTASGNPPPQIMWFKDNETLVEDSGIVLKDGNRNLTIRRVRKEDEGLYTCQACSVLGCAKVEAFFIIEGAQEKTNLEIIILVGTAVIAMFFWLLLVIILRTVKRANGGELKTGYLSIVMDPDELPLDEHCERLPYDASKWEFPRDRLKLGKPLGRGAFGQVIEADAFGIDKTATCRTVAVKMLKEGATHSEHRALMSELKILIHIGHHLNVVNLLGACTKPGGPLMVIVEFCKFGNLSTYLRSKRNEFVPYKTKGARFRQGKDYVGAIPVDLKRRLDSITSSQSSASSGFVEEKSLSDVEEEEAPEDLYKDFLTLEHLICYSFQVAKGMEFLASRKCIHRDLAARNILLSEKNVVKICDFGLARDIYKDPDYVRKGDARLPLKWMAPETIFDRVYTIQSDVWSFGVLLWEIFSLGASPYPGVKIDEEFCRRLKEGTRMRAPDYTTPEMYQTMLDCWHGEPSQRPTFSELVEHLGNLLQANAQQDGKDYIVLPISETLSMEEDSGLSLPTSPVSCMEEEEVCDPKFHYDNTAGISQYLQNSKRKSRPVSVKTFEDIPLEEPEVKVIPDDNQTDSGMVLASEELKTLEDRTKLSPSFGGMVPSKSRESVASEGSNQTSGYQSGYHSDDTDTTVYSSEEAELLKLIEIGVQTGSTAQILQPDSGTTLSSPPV
Chain of CDK4/cyclinD (P11802 whole entry): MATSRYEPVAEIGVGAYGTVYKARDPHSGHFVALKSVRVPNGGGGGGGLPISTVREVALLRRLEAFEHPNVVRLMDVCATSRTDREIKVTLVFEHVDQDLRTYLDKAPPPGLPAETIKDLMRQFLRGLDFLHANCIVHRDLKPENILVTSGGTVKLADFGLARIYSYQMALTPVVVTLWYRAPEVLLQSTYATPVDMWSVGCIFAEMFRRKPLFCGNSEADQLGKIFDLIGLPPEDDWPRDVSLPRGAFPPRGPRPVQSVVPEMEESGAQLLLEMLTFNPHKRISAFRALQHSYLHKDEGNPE
Chain of CDK4/cyclinD (P24385 whole entry partner): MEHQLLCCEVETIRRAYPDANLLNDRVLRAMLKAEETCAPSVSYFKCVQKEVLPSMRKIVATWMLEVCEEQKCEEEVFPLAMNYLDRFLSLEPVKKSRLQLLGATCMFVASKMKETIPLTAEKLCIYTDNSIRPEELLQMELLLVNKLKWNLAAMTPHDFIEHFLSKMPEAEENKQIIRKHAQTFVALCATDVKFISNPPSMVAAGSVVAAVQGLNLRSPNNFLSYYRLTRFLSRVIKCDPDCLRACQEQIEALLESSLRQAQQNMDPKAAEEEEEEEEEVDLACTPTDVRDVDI

| Compound | inhibition at 0.1 µM (CAMK2δ) [%] | inhibition at 1 µM (CAMK2δ) [%] | inhibition at 0.1 µM (CDK4/cyclinD) [%] | inhibition at 1 µM (CDK4/cyclinD) [%] | inhibition at 0.1 µM (KDR) [%] | inhibition at 1 µM (KDR) [%] | inhibition at 0.1 µM (SGK3) [%] | inhibition at 1 µM (SGK3) [%] | inhibition at 0.1 µM (AKT2) [%] | inhibition at 1 µM (AKT2) [%] | inhibition at 0.1 µM (MSSK1) [%] | inhibition at 1 µM (MSSK1) [%] | inhibition at 0.1 µM (RSK1) [%] | inhibition at 1 µM (RSK1) [%] | inhibition at 0.1 µM (SPHK2) [%] | inhibition at 1 µM (SPHK2) [%] | inhibition at 0.1 µM (TIE2) [%] | inhibition at 1 µM (TIE2) [%] | inhibition at 0.1 µM (MST2) [%] | inhibition at 1 µM (MST2) [%] |
| --- | --- | --- | --- | --- | --- | --- | --- | --- | --- | --- | --- | --- | --- | --- | --- | --- | --- | --- | --- | --- |
| COc1cc(-c2cc(-c3ccc(N4CCNCC4)cc3)cnc2C)cc(OC)c1OC [Compound 10, 1-(4-(6-methyl-5-(3,4,5-trimethoxyphenyl)pyridin-3-yl)phenyl)piperazine] | 1 | 1 | -3 | 2 | 0 | 3 | 3 | 11 | -1 | -1 | 2 | 2 | 1 | 1 | 13 | 5 | 1 | 0 | 0 | 1 |
| COc1cc(-c2cc(-c3ccc(N4CCNCC4)cc3)cnc2N)cc(OC)c1OC [Compound 15, 5-(4-(piperazin-1-yl)phenyl)-3-(3,4,5-trimethoxyphenyl)pyridin-2-amine] | 1 | 3 | 1 | 3 | 6 | 22 | -8 | 3 | 2 | 2 | -2 | 0 | 1 | 5 | 6 | -6 | 1 | 6 | 3 | 4 |
